Patent US12030881B2, “Ion channel modulators” (PRAXIS PRECISION MEDICINES, INC., priority 2019, dated 2024)

Molecular target: T1, INaL v1.6 (Nav late current, recombinant sodium channels) (Homo sapiens, UniProt Q9UQD0)
T1 construct: expressed in transfected cells; host or cells: HEK-293
Experiment: PatchXpress electrophysiology, ATX-II evoked Nav late current (INaL) in HEK-293 cells expressing recombinant sodium channels
Type: cell-based
Settings: HEK293, compound at 1 μM, late current evoked by ATX-II 300 nM, steady state block
Method: Functional characterization of exemplary compounds to modulate voltage gated sodium currents was accomplished using the PatchXpress™ high throughput electrophysiology platforms (Molecular Devices, Sunnyvale, CA). HEK-293 cells expressing recombinant sodium channels were grown in DMEM/high-glucose Dulbecco's modified, 10% FBS, 2 mM sodium pyruvate, and G418. Nav channel expressing cells were grown to 50%-80% confluency and harvested by trypsinization. Trypsinized cells were washed and resuspended in extracellular buffer at a concentration of 1×10^6 cells/ml. The onboard liquid handling facility of the PatchXpress was used for dispensing cells and application of test compounds. Nav late currents were evoked by the application of ATX-II, 300 nM. Currents were evoked by depolarizing pulses to 0 mV for 200 ms from a non-inactivating holding potential (e.g., −120 mV to −150 mV) at a frequency of 0.1 Hz. Late current amplitude and stability were determined by analyzing the mean current amplitude over the 175-195 msec region of the 200 msec test pulse. Following steady state block with exemplary compounds (e.g., as described herein) at 1 μM, a Na free solution containing an impermeant cation (e.g., Choline or NDMG) was added for determination of the 0 current level. Late current amplitudes for each test condition were determined from the mean of the 175-195 msec region of the 200 msec test pulse. Percent inhibition of steady state currents was calculated as (compound-baseline)/(control-baseline)*100, where control represents INaL recorded in the absence of compound.

T1 sequence (Q9UQD0 whole entry): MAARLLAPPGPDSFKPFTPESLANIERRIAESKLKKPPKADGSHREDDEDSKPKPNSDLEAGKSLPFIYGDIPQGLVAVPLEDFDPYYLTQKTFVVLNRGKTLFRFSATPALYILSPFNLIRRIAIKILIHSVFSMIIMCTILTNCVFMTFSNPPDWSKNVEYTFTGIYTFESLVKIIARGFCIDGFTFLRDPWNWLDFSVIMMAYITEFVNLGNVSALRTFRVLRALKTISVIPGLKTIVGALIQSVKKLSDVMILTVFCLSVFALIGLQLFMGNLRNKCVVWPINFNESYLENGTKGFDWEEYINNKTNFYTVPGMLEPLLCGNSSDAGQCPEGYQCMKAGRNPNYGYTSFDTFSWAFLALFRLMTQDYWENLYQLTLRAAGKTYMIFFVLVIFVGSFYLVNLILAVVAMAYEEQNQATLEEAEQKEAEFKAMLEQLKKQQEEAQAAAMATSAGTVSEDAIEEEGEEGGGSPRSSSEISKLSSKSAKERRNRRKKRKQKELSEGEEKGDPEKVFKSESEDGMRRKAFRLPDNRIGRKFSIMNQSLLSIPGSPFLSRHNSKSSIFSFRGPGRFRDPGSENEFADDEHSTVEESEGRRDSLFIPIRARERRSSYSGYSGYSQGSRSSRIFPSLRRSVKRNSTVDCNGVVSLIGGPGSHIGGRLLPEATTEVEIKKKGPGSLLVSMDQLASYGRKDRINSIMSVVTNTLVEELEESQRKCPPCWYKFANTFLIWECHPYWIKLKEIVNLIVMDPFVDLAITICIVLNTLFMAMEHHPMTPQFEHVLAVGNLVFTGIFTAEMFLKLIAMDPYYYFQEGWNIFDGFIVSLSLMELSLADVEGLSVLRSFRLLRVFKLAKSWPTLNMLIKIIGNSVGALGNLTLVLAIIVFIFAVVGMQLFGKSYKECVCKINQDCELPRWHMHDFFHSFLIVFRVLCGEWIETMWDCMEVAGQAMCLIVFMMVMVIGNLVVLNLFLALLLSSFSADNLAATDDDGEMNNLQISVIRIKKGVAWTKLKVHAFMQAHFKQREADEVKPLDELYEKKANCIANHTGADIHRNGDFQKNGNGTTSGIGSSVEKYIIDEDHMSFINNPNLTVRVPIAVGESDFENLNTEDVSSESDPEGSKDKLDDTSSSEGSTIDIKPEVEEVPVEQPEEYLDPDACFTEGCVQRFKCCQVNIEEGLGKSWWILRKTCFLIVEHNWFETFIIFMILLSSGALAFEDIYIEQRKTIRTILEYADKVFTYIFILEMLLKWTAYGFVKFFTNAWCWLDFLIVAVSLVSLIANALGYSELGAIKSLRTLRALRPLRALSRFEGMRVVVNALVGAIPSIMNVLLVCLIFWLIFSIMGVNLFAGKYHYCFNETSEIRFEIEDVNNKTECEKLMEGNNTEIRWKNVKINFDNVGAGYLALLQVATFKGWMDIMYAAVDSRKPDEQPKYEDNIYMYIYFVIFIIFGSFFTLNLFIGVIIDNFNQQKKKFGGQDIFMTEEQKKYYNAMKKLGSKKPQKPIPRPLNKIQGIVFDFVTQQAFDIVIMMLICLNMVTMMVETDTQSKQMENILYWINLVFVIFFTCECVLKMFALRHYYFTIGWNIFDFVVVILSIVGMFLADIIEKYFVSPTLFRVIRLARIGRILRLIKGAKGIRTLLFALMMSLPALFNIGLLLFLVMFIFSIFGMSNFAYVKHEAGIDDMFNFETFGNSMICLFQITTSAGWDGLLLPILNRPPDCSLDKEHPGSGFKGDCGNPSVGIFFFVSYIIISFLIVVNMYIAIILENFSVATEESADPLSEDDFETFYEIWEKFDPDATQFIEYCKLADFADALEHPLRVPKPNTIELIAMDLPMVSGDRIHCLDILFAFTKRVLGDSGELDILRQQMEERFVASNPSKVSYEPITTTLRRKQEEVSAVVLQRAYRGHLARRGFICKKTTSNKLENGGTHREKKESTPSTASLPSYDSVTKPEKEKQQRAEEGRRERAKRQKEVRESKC

Compound	inhibition at 1 µM
C[C@H](Oc1ncc(-c2ccc3nnc(C(F)(F)F)n3c2)cc1F)C(F)(F)F [Example 1, 6-[5-fluoro-6-[(1S)-2,2,2-trifluoro-1-methyl-ethoxy]-3-pyridyl]-3-(trifluoromethyl)-[1,2,4]triazolo[4,3-a]pyridine]	> 75%
CC(C)(Oc1ncc(-c2ccc3nnc(C(F)(F)F)n3c2)cc1F)C(F)(F)F [Example 6, 6-[5-fluoro-6-(2,2,2-trifluoro-1,1-dimethyl-ethoxy)-3-pyridyl]-3-(trifluoromethyl)-[1,2,4]triazolo[4,3-a]pyridine]	> 75%
Fc1cc(-c2ccc3nnc(C(F)(F)F)n3c2)cnc1OC1(C(F)(F)F)CCC1 [Example 7, 6-[5-fluoro-6-[1-(trifluoromethyl)cyclobutoxy]-3-pyridyl]-3-(trifluoromethyl)-[1,2,4]triazolo[4,3-a]pyridine]	> 75%
Fc1cc(-c2ccc3nnc(C(F)(F)F)n3c2)cnc1OC1(C(F)(F)F)COC1 [Example 8, 6-[5-fluoro-6-[3-(trifluoromethyl)oxetan-3-yl]oxy-3-pyridyl]-3-(trifluoromethyl)-[1,2,4]triazolo[4,3-a]pyridine]	50 to 75%

More lines, now with the values ahead:

inhibition at 1 µM	Compound
> 75%	C[C@@H](Oc1ncc(-c2ccc3nnc(C(F)(F)F)n3c2)cc1F)C(F)(F)F [Example 2, 6-[5-fluoro-6-[(1R)-2,2,2-trifluoro-1-methyl-ethoxy]-3-pyridyl]-3-(trifluoromethyl)-[1,2,4]triazolo[4,3-a]pyridine]
> 75%	C[C@@H](Oc1ncc(-c2ccc3nnc(C(F)F)n3c2)cc1F)C(F)(F)F [Example 3, 3-(difluoromethyl)-6-[5-fluoro-6-[(1R)-2,2,2-trifluoro-1-methyl-ethoxy]-3-pyridyl]-[1,2,4]triazolo[4,3-a]pyridine]
> 75%	C[C@H](Oc1ncc(-c2ccc3nnc(C(F)F)n3c2)cc1F)C(F)(F)F [Example 4, 3-(difluoromethyl)-6-[5-fluoro-6-[(1S)-2,2,2-trifluoro-1-methyl-ethoxy]-3-pyridyl]-[1,2,4]triazolo[4,3-a]pyridine]
> 75%	CC(C)(Oc1ncc(-c2ccc3nnc(C(F)F)n3c2)cc1F)C(F)(F)F [Example 5, 3-(difluoromethyl)-6-[5-fluoro-6-(2,2,2-trifluoro-1,1-dimethyl-ethoxy)-3-pyridyl]-[1,2,4]triazolo[4,3-a]pyridine]
50 to 75%	Fc1cc(-c2ccc3nnc(C(F)F)n3c2)cnc1OCC(F)(F)F [Example 9, 3-(difluoromethyl)-6-[5-fluoro-6-(2,2,2-trifluoroethoxy)-3-pyridyl]-[1,2,4]triazolo[4,3-a]pyridine]
> 75%	Fc1cc(-c2ccc3nnc(C(F)(F)F)n3c2)cnc1OCC(F)(F)F [Example 10, 6-[5-fluoro-6-(2,2,2-trifluoroethoxy)-3-pyridyl]-3-(trifluoromethyl)-[1,2,4]triazolo[4,3-a]pyridine]
